PMC5377235, “A new target region for changing the substrate specificity of amine transaminases” (Scientific Reports, 2015)

Tests used:
[1] = target: T1, Ab-R-ATA (Arthrobacter sp. KNK168, UniProt F7J696); assay: HPLC of acetophenone formed, initial kinetics; format: biochemical; conditions: 10 mM (R)-1-phenylethylamine as amino donor, 0.5 mM PLP, 100 mM Tris-HCl pH 8.5, 30 °C
T1 construct: gene TAS; full length, 330 amino acids, no tag, pUCNT vector, E. coli Rosetta (DE3); homodimer, active site formed with loop 129-145 of the other protomer
Source text: (§1) HPLC of acetophenone formed, initial kinetics on Ab-R-ATA | The kcat/Km values for pyruvate of the R138A and the R138Q mutants

[2] = target: T2, Ab-R-ATA (Arthrobacter sp. KNK168, UniProt F7J696, R138Q, form not given); assay: HPLC of acetophenone formed, initial kinetics; format: biochemical; conditions: 10 mM (R)-1-phenylethylamine as amino donor, 0.5 mM PLP, 100 mM Tris-HCl pH 8.5, 30 °C
T2 construct: gene TAS; full length, 330 amino acids, no tag, pUCNT vector, E. coli Rosetta (DE3); homodimer, active site formed with loop 129-145 of the other protomer
Source text: as §1

[3] = target: T3, ATA-117-Rd11 (Arthrobacter sp. KNK168, UniProt F7J696, S8P/Y60F/L61Y/H62T/V65A/V69T/D81G/M94I/I96L/F122M/S124T/S126T/G136F/Y150S/V152C/A169L/V199I/A209L/G215C/G217N/S223P/L269P/L273Y/T282S/A284G/P297S/S321P); assay: X-ray crystal structure, […] Å; format: binding; conditions: covalent; internal aldimine
T3 construct: gene TAS; synthetic gene, pET28a N-His tag, thrombin cleaved; E. coli; homodimer

| Km [1] [mM] | Km [2] [mM] | Compound | X-ray crystal structure, 2.20 Å [3] |
| --- | --- | --- | --- |
| 5.8 ± 0.1 | 66 ± 3 | CC(=O)C(=O)O [pyruvate] |  |
|  |  | Cc1ncc(COP(=O)(O)O)c(C=O)c1O [PLP] | The cofactor PLP in the active site is shown as green sticks |
